Results published in paper PMC7318554 (Journal of medicinal chemistry, 2020).
Like-named read-outs stand apart in the source and are kept apart here.

Tests used:
[1] = tested on: H3255 cells; test: Cell proliferation assay; type: cell-based; settings: 3 days
[2] = target: EGFR e19d (EGFR mutant with exon 19 deletion) (Homo sapiens, UniProt P00533, DEL746-750); test: Western blotting of EGFR protein in HCC-827 cells; type: cell-based; settings: for hook effect: highest concentration 10 μM (PROTAC3: 1 and 10 μM); for time after washout at which the EGFR protein level was recovered: 12 h degrader treatment, then washout; for maximum EGFR protein degradation: at a concentration as low as 50 nM, 16 h
[3] = target: T1, EGFR L858R (Homo sapiens, UniProt P00533, L858R); test: Western blotting of EGFR protein in H3255 cells; type: cell-based; settings: for hook effect / reversibility of EGFR degradation upon washout / maximum EGFR protein degradation / effect on mutant EGFR protein level: H3255 cells; for hook effect: highest concentration 10 μM (PROTAC3: 1 and 10 μM); for reversibility of EGFR degradation upon washout: 12 h degrader treatment, then washout; for maximum EGFR protein degradation: at a concentration as low as 50 nM, 16 h; for effect on mutant EGFR protein level: 8 h serum-free, 16 h treatment, gefitinib at 1 μM
[4] = target: T2, WT EGFR (Homo sapiens, UniProt P00533); settings: previous finding; cited from earlier work
[5] = in vivo; settings: male, Swiss Albino, mouse, ip, 50 mg/kg
[6] = target: T2, WT EGFR; test: Western blotting of WT EGFR protein in H1299 cells; type: cell-based; settings: 8 h serum-free, 16 h treatment
[7] = target: T1, EGFR L858R; test: KINOMEscan competition binding assay, EGFR L858R; settings: EGFR L858R mutant
[8] = Mouse pharmacokinetic study; settings: mice; single IP injection 50 mg/kg
[9] = tested on: p-EGFR, p-AKT; test: Western blotting of downstream signaling; type: cell-based
[10] = target: EGFR (Homo sapiens, UniProt P00533, DEL746-750); test: Global label-free quantitative proteomics in HCC-827 cells; type: cell-based; settings: HCC-827 cells starved 8 h; 100 nM for 16 h
[11] = target: EGFR WT (Homo sapiens, UniProt P00533); test: KINOMEscan competition binding assay, EGFR WT
[12] = tested on: p-EGFR, p-AKT; test: Western blotting of downstream signaling; type: cell-based; remark: listed apart in the source
[13] = target: T2, WT EGFR; test: Western blotting of WT EGFR protein in OVCAR-8 cells; type: cell-based; settings: 8 h serum-free, 16 h treatment
[14] = 100 nM, after 8 h serum starvation
[15] = H3255 cells, 16 h treatment, gefitinib at 1 μM
[16] = HCC-827 cells, 12 h degrader treatment, then washout
[17] = HCC-827 cells, 16 h treatment, gefitinib at 1 μM

## COc1cc2ncnc(Nc3ccc(F)c(Cl)c3)c2cc1OCCCCCOCCOCCC(=O)N[C@H](C(=O)N1C[C@H](O)C[C@H]1C(=O)NCc1ccc(-c2scnc2C)cc1)C(C)(C)C [PROTAC3, reference compound]
[1]
  potency at cell growth inhibition compared with gefitinib: less potent
[2]
  hook effect: much more significant hook effect
[3]
  hook effect: much more significant hook effect
[4]
  degradation of the WT EGFR: did not degrade the WT EGFR

## COc1cc2ncnc(Nc3ccc(F)c(Cl)c3)c2cc1OCCCN1CCN(C(=O)CCCCCCCCCC(=O)N[C@H](C(=O)N2C[C@H](O)C[C@H]2C(=O)NCc2ccc(-c3scnc3C)cc2)C(C)(C)C)CC1 [Compound 6, (2S,4R)-1-((S)-2-(11-(4-(3-((4-((3-Chloro-4-fluorophenyl)amino)-7-methoxyquinazolin-6-yl)oxy)propyl)piperazin-1-yl)-11-oxounde-canamido)-3,3-dimethylbutanoyl)-4-hydroxy-N-(4-(4-methylthiazol-5-yl)benzyl)pyrrolidine-2-carboxamide]
[5]
  concentration at 24 h: ~1000 nM
[6]
  effect on WT EGFR protein levels: did not significantly reduce the WT EGFR protein levels
[1]
  cell growth inhibition: effectively inhibited the growth of H3255 cells
  potency at cell growth inhibition compared with PROTAC3: more potent than the previously reported PROTAC3
  potency at cell growth inhibition compared with gefitinib: less potent
[7]
  weaker binding affinity compared to gefitinib: approximately 10 fold
[8]
  plasma concentration maintained over 8 h: approximately 5 μM
  tolerability: well tolerated, and no clinical signs were observed
[9]
  effect on AKT protein levels: did not affect the AKT protein levels
  inhibition of EGFR autophosphorylation (p-EGFR) and AKT phosphorylation (p-AKT): potently inhibited
[2]; [14]
  treatment time to near-complete / maximum EGFR degradation: around 12 h
[2]
  time after washout at which the EGFR protein level was recovered: 24 h
  maximum EGFR protein degradation: over 95%
  hook effect: slight “hook effect”
[10]
  EGFR protein degraded: Over 75%
[11]
  weaker binding affinity compared to gefitinib: approximately 10 fold
[12]
  effect on AKT protein levels: did not affect the AKT protein levels
  inhibition of EGFR autophosphorylation (p-EGFR) and AKT phosphorylation (p-AKT): potently inhibited
  time after washout at which p-AKT was recovered: 48 h
  time after washout at which p-EGFR was recovered: 24 h
  treatment time at which robust inhibition of p-AKT was observed: 1 h
[3]
  reversibility of EGFR degradation upon washout: reversible
  maximum EGFR protein degradation: over 95%
  hook effect: undetectable
[13]
  effect on WT EGFR protein levels: did not significantly reduce the WT EGFR protein levels

## COc1cc2ncnc(Nc3ccc(F)c(Cl)c3)c2cc1OCCCN1CCN(CCC(=O)NCCCCCCCCOc2cccc3c2C(=O)N(C2CCC(=O)NC2=O)C3=O)CC1 (centres unmarked) [Compound 10, 3-(4-(3-((4-((3-Chloro-4-fluorophenyl)amino)-7-methoxyquinazolin-6-yl)oxy)propyl)piperazin-1-yl)-N-(8-((2-(2,6-dioxopiperidin-3-yl)-1,3-dioxoisoindolin-4-yl)oxy)octyl)propanamide]
[6]
  effect on WT EGFR protein levels: did not significantly reduce the WT EGFR protein levels
[1]
  cell growth inhibition: inhibited the growth of H3255 cell
  potency at cell growth inhibition compared with PROTAC3: not as potent as compound 6 and PROTAC3
  potency at cell growth inhibition compared with gefitinib: less potent
[7]
  weaker binding affinity compared to gefitinib: 5 fold
[8]
  highest plasma concentration: approximately 500 nM
  time post dosing of the highest plasma concentration: 8 h
  tolerability: well tolerated, and no clinical signs were observed
[9]; H3255 cells
  effect on AKT protein levels: did not affect the AKT protein levels
[9]; [15]
  inhibition of EGFR autophosphorylation (p-EGFR) and AKT phosphorylation (p-AKT): potently inhibited
[2]; [14]
  time to reduce the half-maximum of the EGFR protein level: 3.5 h
  treatment time to near-complete / maximum EGFR degradation: 12 h
[2]
  time after washout at which the EGFR protein level was recovered: 24 h
  maximum EGFR protein degradation: over 95%
  hook effect: slight “hook effect”
[10]
  EGFR protein degraded: Over 75%
[12]; HCC-827 cells
  effect on AKT protein levels: did not affect the AKT protein levels
[12]; [16]
  time after washout at which p-AKT was recovered: 48 h
  time after washout at which p-EGFR was recovered: 24 h
[12]; [17]
  inhibition of EGFR autophosphorylation (p-EGFR) and AKT phosphorylation (p-AKT): potently inhibited
[3]
  reversibility of EGFR degradation upon washout: reversible
  maximum EGFR protein degradation: over 95%
  hook effect: undetectable
[13]
  effect on WT EGFR protein levels: did not significantly reduce the WT EGFR protein levels

## COc1cc2ncnc(Nc3ccc(F)c(Cl)c3)c2cc1OCCCN1CCN(C(=O)CCCCCCCCCC(=O)N[C@H](C(=O)N2C[C@@H](O)C[C@@H]2C(=O)NCc2ccc(-c3scnc3C)cc2)C(C)(C)C)CC1 [Compound 27, (2R,4S)-1-((S)-2-(11-(4-(3-((4-((3-Chloro-4-fluorophenyl)amino)-7-methoxyquinazolin-6-yl)oxy)propyl)piperazin-1-yl)-11-oxoundecanamido)-3,3-dimethylbutanoyl)-4-hydroxy-N-(4-(4-methylthiazol-5-yl)benzyl)pyrrolidine-2-carboxamide]
[9]
  inhibition of EGFR autophosphorylation (p-EGFR) and AKT phosphorylation (p-AKT): lower potency
[12]
  inhibition of EGFR autophosphorylation (p-EGFR) and AKT phosphorylation (p-AKT): lower potency
[3]
  effect of 2 h pretreatment on EGFR degradation induced by compound 6: blocked
  effect on mutant EGFR protein level: did not significantly induce the degradation of EGFR mutants

## Cc1ncsc1-c1ccc(CNC(=O)[C@@H]2C[C@@H](O)CN2C(=O)[C@@H](NC(=O)C2(C#N)CC2)C(C)(C)C)cc1 [VH-298, reference compound]
[3]
  effect of 2 h pretreatment on EGFR degradation induced by compound 6: blocked

## COc1cc2ncnc(Nc3ccc(F)c(Cl)c3)c2cc1OCCCN1CCN(CCC(=O)NCCCCCCCCOc2cccc3c2C(=O)N(C2CCC(=O)N(C)C2=O)C3=O)CC1 (centres unmarked) [Compound 28, 3-(4-(3-((4-((3-Chloro-4-fluorophenyl)amino)-7-methoxyquina-zolin-6-yl)oxy)propyl)piperazin-1-yl)-N-(8-((2-(1-methyl-2,6-dioxopiperidin-3-yl)-1,3-dioxoisoindolin-4-yl)oxy)octyl)propanamide]
[9]; [15]
  inhibition of EGFR autophosphorylation (p-EGFR) and AKT phosphorylation (p-AKT): lower potency
[12]; [17]
  inhibition of EGFR autophosphorylation (p-EGFR) and AKT phosphorylation (p-AKT): lower potency
[3]
  effect on mutant EGFR protein level: did not significantly induce the degradation of EGFR mutants

## O=C1CCC(N2C(=O)c3ccccc3C2=O)C(=O)N1 (centres unmarked) [thalidomide, reference compound]
[3]
  effect of 2 h pretreatment on EGFR degradation induced by compound 10: blocked
